Results as given in PMC2828353 (Journal of inherited metabolic disease, 2008).

Target: T1, DMGDH (His6-DMGDH, mature human dimethylglycine dehydrogenase) (Homo sapiens, UniProt Q9UI17)
T1 sequence (Q9UI17 51-866): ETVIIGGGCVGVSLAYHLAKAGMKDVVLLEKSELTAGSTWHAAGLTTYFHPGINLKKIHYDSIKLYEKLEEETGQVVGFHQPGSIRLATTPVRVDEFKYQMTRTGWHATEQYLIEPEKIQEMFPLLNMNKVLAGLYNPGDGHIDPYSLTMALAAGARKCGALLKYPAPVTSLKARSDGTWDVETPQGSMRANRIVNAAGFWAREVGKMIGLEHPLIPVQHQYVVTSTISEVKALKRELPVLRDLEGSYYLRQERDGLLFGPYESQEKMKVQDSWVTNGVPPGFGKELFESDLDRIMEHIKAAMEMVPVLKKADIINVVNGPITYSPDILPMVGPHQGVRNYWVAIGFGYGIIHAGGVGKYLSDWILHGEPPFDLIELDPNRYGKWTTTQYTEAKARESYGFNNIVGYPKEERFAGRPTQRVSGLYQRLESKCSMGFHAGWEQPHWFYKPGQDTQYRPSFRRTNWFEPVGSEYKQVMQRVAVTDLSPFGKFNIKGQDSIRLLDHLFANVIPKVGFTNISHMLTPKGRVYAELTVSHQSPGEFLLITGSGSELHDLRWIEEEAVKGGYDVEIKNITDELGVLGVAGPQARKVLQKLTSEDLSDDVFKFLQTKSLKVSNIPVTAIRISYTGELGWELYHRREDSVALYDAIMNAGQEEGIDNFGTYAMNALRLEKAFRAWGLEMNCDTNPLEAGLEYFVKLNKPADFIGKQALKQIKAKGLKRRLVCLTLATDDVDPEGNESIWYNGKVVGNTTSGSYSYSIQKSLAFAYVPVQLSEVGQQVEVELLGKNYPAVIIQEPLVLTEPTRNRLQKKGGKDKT
Assay: ferricenium reduction at […] nm
Assay type: biochemical
Settings: dimethylglycine as substrate, Hepes pH 7.5, 25°C

## Nc1nc2c(c(=O)[nH]1)N[C@@H](CNc1ccc(C(=O)N[C@@H](CCC(=O)O)C(=O)O)cc1)CN2 [tetrahydrofolate]
  % decrease in Vmax at 4 μmol/L: ~ 25%
